From patent US20260257992A1, “AGONISTS OF SMALL HETERODIMER PARTNER FOR CANCER THERAPY” (THE BOARD OF TRUSTEES OF THE UNIVERSITY OF ILLINOIS, priority 2023, published 2026)

Legend:
[1] = tested on: ABCA1 mRNA; experiment: ABCA1 mRNA reduction in Raw cells; format: cell-based; design: key: ✓: using strict cutoffs with respect to DSHN for passing each metric; X: using strict cutoffs with respect to DSHN for passing each metric; settings: pass/fail with respect to DSHN
Excerpt: (§1) Development of a more efficacious NR0B2 agonist. While DSHN was a useful proof-of-concept small molecule, macrophages required high doses and chronic exposure for robust influences on subsequent Tregs expansion. […] Therefore, we synthesized several derivatives of DSHN and screened them using a reporter assay which makes use of the endogenous cholesterol homeostatic feedback loop, where FXR activation upregulates NR0B2, which then inhibits LXR and its normal induction of ABCA1. We then followed this screen with several others with stringent cutoffs: effect on endogenous ABCA1 and IL1β expression, reduction of Treg expansion in either macrophage or DC co-cultures, and low cellular toxicity (FIG. 5A, Table 4).

[2] = molecular target: T1, NR0B2 (Homo sapiens, UniProt Q15466); experiment: ABCA1 reporter screen to identify NR0B2 agonists (HepG2); format: cell-based; design: key: ✓: using strict cutoffs with respect to DSHN for passing each metric; X: using strict cutoffs with respect to DSHN for passing each metric; settings: HepG2, 50 μM test compound, 1 μM GW3965; pass/fail with respect to DSHN
T1 construct: a reporter assay which makes use of the endogenous cholesterol homeostatic feedback loop; endogenous in cells; host or cells: HepG2
T1 sequence (Q15466 1-257): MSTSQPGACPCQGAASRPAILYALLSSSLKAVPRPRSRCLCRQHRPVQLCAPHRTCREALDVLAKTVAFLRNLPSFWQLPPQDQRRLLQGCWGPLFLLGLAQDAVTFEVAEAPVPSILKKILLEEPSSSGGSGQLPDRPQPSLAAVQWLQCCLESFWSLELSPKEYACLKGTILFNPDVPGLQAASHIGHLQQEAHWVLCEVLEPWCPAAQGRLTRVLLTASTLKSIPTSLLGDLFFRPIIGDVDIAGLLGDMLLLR
Excerpt: as §1
Screening to identify NR0B2 agonists. HepG2 cells were co-transfected with ABCA1 renilla reporter plasmid and TK-control firefly luciferase vector at 20:1 using Lipofectamine 3000 reagent according to manufacturer's instructions for 24 hrs. Afterwards, 7000 cells were seeded in to 384 well f-bottom, white plates (Greiner Bio-One). Test compounds were added to the plates in a final working volume of 30 μL (for a final concentration of 50 μM) in presence of DMSO or 1 μM GW3965 and incubated for 20-24 hrs at 37° C. Luciferase activity was measured using the Luc-Pair Duo-Luciferase HT Assay kit (GeneCopoeia, Rockville, MD, USA) by adding luciferase substrates sequentially following manufacturer instructions. Luminescence was measured with 2 s integration times in a microplate reader (BioTek Cytation 5), 15 min after adding each substrate. The addition of reagents to the microplates was timed at each step to match the reading time delays and reading sequence of the microplate reader.

[3] = tested on: E0771 tumors; experiment: Survival after orthotopic graft of a suboptimal number of E0771-luc cells; format: in vivo, mouse; settings: treatment ceased after 18 days
Excerpt: We then evaluated DSHN in a model where a low, suboptimal number of E0771-luc cells were grafted orthotopically. Since NR0B2 was also implicated in regulating myeloid cell expression of PD-L1, we investigated the effect of acute DSHN combined with anti-PD-L1 (αPDL1) treatment on subsequent outgrowth of E0771 tumors. Treatment was ceased after 18 days and mice were monitored through time. […] We next assessed the effects of DSHN combined with αPDL1 on growth of primary tumors (optimal number of cells used to establish graft). […] We then evaluated the ability of DSHN to impact established metastatic disease—a stage that is refractory to standard of care therapy and immune checkpoint blockade. […] In summary, the tool compound DSHN provides proof of principle that the NR0B2-myeloid cell-Treg axis can be targeted for the treatment of breast cancer.

[4] = tested on: Treg expansion; experiment: Treg expansion with PBMC-derived DCs of healthy volunteers; format: cell-based, human; settings: cells from healthy volunteers
[5] = Aqueous solubility; format: physicochemical
[6] = tested on: breast cancer cell lines; experiment: Proliferation of breast cancer cell lines; format: cell-based
Excerpt: Protective attributes of NR0B2 are likely due to its expression in myeloid cells. […] Among human PBMCs, various subtypes of dendritic cells (DCs) and monocyte populations had elevated expression of NR0B2.

Structure (SMILES)	ABCA1 mRNA reduction (Raw Cells) [1]	ABCA1 reporter screen [2]	Survival of one DSHN-only treated mouse, no palpable tumor ([3]; post graft)	Survival time, combined with αPDL1 ([3]; versus placebo)	Treg expansion, human PBMC-derived DCs [4]	Aqueous solubility [5]	Proliferation of breast cancer cell lines [6]
CCN(CC)S(=O)(=O)c1cccc2cc(C(=O)OC)c(O)cc12 [DSHN-OMe, Methyl 5-(N,N-diethylsulfamoyl)-3-hydroxy-2-naphthoate]	✓	✓					
CCN(CC)S(=O)(=O)c1cccc2cc(C(=O)O)c(O)cc12 [DSHN, reference compound]			more than 400 days	significantly increased survival time	decreased Treg expansion	poor aqueous solubility	no effect on proliferation
